Experimental data published in patent US5965568A, “Composition for inhibiting production or secretion of amyloid β protein to treat Down's syndrome” (priority 1995, dated 1999).

What was measured:
[1] = system: secreted βAPP; settings: in vitro various cells; cited from earlier work
[2] = system: Aβ production or secretion; settings: in vitro various cells; cited from earlier work
[3] = system: IMR-32 cells; assay: Evaluation of the cytotoxicity, MTT method, IMR-32 cells; format: cell-based, human; settings: 1×10^-4 (maximum concentration used)
Protocol: The culture supernatant was sampled, and DMEM culture solution (500 μl) containing 1.2 mM MTT {3-(4,5dimethyl-2-thiazolyl)-2,5-diphenyl-2H-tetrazolium bromide} was added. The reaction was carried out for 1 hour at 37° C., and then an equal amount of 10% sodium dodecyl sulfate solution was added. The mixture was gently stirred overnight to dissolve the resulting formazan, and then subjected to colorimetry (wavelength: 550 nm) with a plate reader.
Four wells were used per dose of the drug. The value in the data was represented as a ratio (%) to the control group. Dunnett's t test was used for the statistical analysis.

[4] = system: guinea pig primary culture neurons
Protocol: Fetal brains were taken out from guinea pigs (SLC-Hartley) that was 28 days pregnant. The cerebral cortex and hippocampus were taken out under a stereoscopic microscope, and, after removing the meninges, were treated in Hank's Balanced Salt Solution (20 ml) containing 0.25% trypsin/0.01% DNase I for 10 minutes. FCS was added to stop the reaction, and the mixture was centrifuged. The cells were dispersed in DMEM culture solution (DMEM/N2 culture solution) containing insulin 5 μg/ml, transferrin 100 μg/ml, progesterone 20 nM, putrescine 100 μM and sodium selenite 30 nM. The dispersion was filtered through double lens paper, and the filtrate was centrifuged to collect the cells. The cells were dispersed in DMEM/N2 culture solution, and inoculated in a 24-well plate at a density of 1×10^-6 cells/well. On the second day from the beginning of the cultivation, the culture solution was replaced with DMEM/N2 culture solution containing cytosine arabinoside (1 μM). After the treatment for 3 days, the culture solution was replaced with DMEM/N2 culture solution. Thereafter, the culture solution was replaced every 2 to 3 days. […] After the culture supernatant was collected, DMEM culture solution (300 μl) containing 1.2 mM MTT was added. After the reaction was carried out at 37° C. for 1 hour, an equal amount of 10% sodium dodecyl sulfate solution was added.

[5] = has been used as a medicament; cited from earlier work
[6] = system: Aβ (1-40) production and secretion in guinea pig primary culture neurons; assay: Inhibitory activity against Aβ (1-40) production and secretion in guinea pig primary culture neurons (EIA); format: cell-based; settings: 3×10^-5 M, 24 hours
Source text: Aβ (1-40) and Aβ (1-42) in the culture supernatant were quantified in the same manner as that described in Experiment 1.

[7] = system: IMR-32 cells; assay: Evaluation of the cytotoxicity, lactate dehydrogenase (LDH) method, IMR-32 cells; format: cell-based, human; settings: 1×10^-4 (maximum concentration used)
Protocol: IMR-32 cells were cultured at 37° C. in 10% carbon dioxide/90% air using 10% FCS/DMEM culture solution in a flask (Falcon, 750 ml) until the confluent growth of the cells was obtained. Then, the cells were inoculated in a 48-well multi well plate at a density of 2.5×10^5 cells/well, and cultured for 5 days. […] The cells were cultured for 24 hours. […] The culture supernatant (10 μl) obtained after the assay of Aβ (1-40) was sampled, and the amount of LDH released from the cells was determined with a LDH assay kit (LDH C-II manufactured by Wako Pure Chemical Industries, Ltd.). Four wells were used per dose of the drug. The value in the data was represented as a ratio (%) to the control group. Dunnett's t test was used for the statistical analysis.

[8] = system: Aβ (1-42) production and secretion in IMR-32 cells; assay: Inhibitory activity against Aβ (1-42) production or secretion in human neuroblastoma IMR-32 cells (EIA, BAN-50/BC-05); format: cell-based; settings: not a significant change
Source text: (§1) Studies on Aβ production or secretion in human-derived neurons and gliocytes are very interesting because of the relation to Alzheimer's dementia. However, human primary culture neurons and gliocytes cannot generally be used for experimental materials. IMR-32 cells were therefore used. The IMR-32 cells are human-derived neuroblastoma cells, and produce and secrete Aβ in the culture supernatant (Shinkei Kagaku (Neurochemistry) 33, 232 (1994)). In addition, Dr. Hironobu Suzuki et al. (Science, 264, 1336 (1994)) had developed an enzyme immunoassay method that can determine and distinguish between Aβ of 40 amino acids (Aβ (1-40)) and Aβ of 42 amino acids (Aβ (1-42)). This method was used to determine inhibitory activity of the test compound against Aβ production or secretion.
Human neuroblastoma IMR-32 cells were purchased from American Type Culture Collection (ATCC). Dulbecco's modified Eagle's medium (DMEM) was purchased from Nissui Pharmaceutical Co., Ltd., Japan. Fetal calf serum (hereinaftersometimes abbreviated as FCS) and a mixed solution of penicillin (5000 U/ml) and streptomycin (5 mg/ml) were purchased from Biowhittaker Inc. Phosphate buffered saline (PBS) was purchased from Flow Laboratories. Block Ace was purchased from Dainippon Pharmaceutical Co., Ltd. Bovine serum albumin (BSA) was purchased from Sigma. […]

[9] = system: Aβ production or secretion in IMR-32 cells; assay: Inhibitory activity against Aβ production or secretion in human neuroblastoma IMR-32 cells (EIA); format: cell-based; settings: 24 hours, vs control group, mean of 4 wells, read-out: inhibition of Aβ production or secretion, based on the control group
Source text: as §1
Human neuroblastoma IMR-32 cells were purchased from American Type Culture Collection (ATCC). Dulbecco's modified Eagle's medium (DMEM) was purchased from Nissui Pharmaceutical Co., Ltd., Japan. Fetal calf serum (hereinaftersometimes abbreviated as FCS) and a mixed solution of penicillin (5000 U/ml) and streptomycin (5 mg/ml) were purchased from Biowhittaker Inc. Phosphate buffered saline (PBS) was purchased from Flow Laboratories. Block Ace was purchased from Dainippon Pharmaceutical Co., Ltd. Bovine serum albumin (BSA) was purchased from Sigma. Flasks for culture and 48-well multi well plates were those manufactured by Falcon and Coster Corporation, respectively. Standard samples of Aβ (1-40) and Aβ (1-42) were purchased from Bachem. The other reagents used were commercially available highest quality goods.
IMR-32 cells were cultured at 37° C. in 10% carbon dioxide/90% air using 10% FCS/DMEM culture solution in a flask (Falcon, 750 ml) until the confluent growth of the cells was obtained. Then, the cells were inoculated in a 48-well multi well plate at a density of 2.5×10^5 cells/well, and cultured for 5 days. The culture solution was sucked off, and then DMEM/0.5% BSA (0.5 ml for the assay of Aβ (1-40) or 0.25 ml for the assay of Aβ (1-42)) was added. The cells were cultured for 24 hours.
In each case, the primary antibody was BAN-50 antibody that recognizes the N-terminal region of Aβ (1-40). BA-27 is an antibody prepared using Aβ (1-40) as an antigen, and recognizes the C-terminal region of Aβ (1-40). On the other hand, BC-05 antibody is an antibody prepared using Aβ (35-43) as an antigen, and recognizes the C-terminal region of Aβ (1-42) but not Aβ (1-40). Therefore, Aβ (1-40) can be assayed with a combination of BAN-50 antibody with BA-27 antibody, and Aβ (1-42) can be assayed with a combination of BAN-50 antibody with BC-05 antibody. […]

C[N+](C)(C)CCOC(N)=O [carbacol]
secreted βAPP [1]: increase the secreted βAPP
Aβ production or secretion [2]: inhibit Aβ production or secretion

CCOC(=O)C1=C[C@]2(CC)CCCN3CCc4c(n1c1ccccc41)[C@@H]32 [Vinpocetine, vinpocetine]
cytotoxicity (formazan formed from MTT) [3]: only slight cytotoxicity
cytotoxicity (MTT) [4]: without any cytotoxicity
toxic problems in use as a medicament [5]: no toxic problems
production or secretion of Aβ (1-40) [6]: inhibited production or secretion of Aβ (1-40)
cytotoxicity (LDH activity in the culture supernatant) [7]: only slight cytotoxicity
Aβ (1-42) production and secretion compared to the control group ([8]; 1×10^-5 M): showed a tendency to decrease
Aβ (1-42) production and secretion compared to the control group ([8]; 3×10^-6 M): showed a tendency to decrease
inhibition at 100 µM ([9]; 1×10^-4 M): 45%
inhibition at 10 µM ([9]; 1×10^-5 M): 30%
inhibition at 30 µM ([9]; 3×10^-5 M): 40%
inhibition at 3 µM ([9]; 3×10^-6 M): 10%
